“Also recorded” adds a separate entry of the source.

The values that follow come from patent US20240390487A1, “TLR AGONISTS FOR REDUCING ACTIVATION-INDUCED PD-1 EXPRESSION ON T CELLS AND METHODS OF USE” (WISCONSIN ALUMNI RESEARCH FOUNDATION, priority 2016, published 2024).

Data set [1] has as its system SSX2-expressing sarcoma cells. Nature of the data set: SSX2 tumor treatment study: DNA vaccine with or without TLR agonist. Format: in vivo, mice. Conditions: for anti-tumor efficacy / tumor growth suppression in combination with DNA vaccine: TLR agonist with DNA vaccine versus vaccine alone; for effect on tumor growth of TLR agonist alone (with vector DNA): with control vector pTVG4. On the procedure:
Mice expressing human HLA-A2 were injected subcutaneously with SSX2-expressing sarcoma cells. Starting one day after inoculation, and every 7 days thereafter, mice were vaccinated with a DNA vaccine encoding SSX2, an optimized version of SSX2 with increased affinity for HLA-A2 (pTVG-SSX2 opt) or negative control vector pTVG4. All were done with or without TLR1/2 agonist or TLR7 agonist mixed with the DNA. A solution of DNA and a solution of TLR agonist in PBS were made and mixed together prior to administration. Note that TLR stimulation via a TLR agonist improves the efficacy of pTVG-SSX2 opt to a greater extent than pTVG-SSX2.
Using this model, HLA-A2-expressing transgenic mice were implanted with synovial sarcoma, X breakpoint 2 (SSX-2)-expressing tumor cells. […], mice were then immunized weekly with control vector (pTVG4), DNA encoding native SSX2 (pTVG-SSX2), or DNA encoding high affinity HLA-A2 epitopes (pTVG-SSX2 opt) in the presence or absence of Pam3CSK4 (TLR1/2) or Gardiquimod (TLR7) agonist.
SSX2 tumor treatment studies: 6- to 8-week old HHDII-DR1 mice were inoculated with 10^5 A2/Sarc-SSX2 cells administered subcutaneously, and then immunized intradermally with DNA vaccines weekly beginning one day after tumor implantation, as previously described (42). TLR agonists or vehicle were co-administered with the vaccine intradermally, and tumor volumes were measured over time using calipers, as described above.

Data set [2] concerns ovalbumin-expressing E.G7 cells. In words: Ovalbumin tumor treatment study: peptide immunization with or without TLR agonist. Format: in vivo, mice. Conditions: for anti-tumor effect of peptide immunization with TLR agonist: OVA or FT peptide with TLR agonist versus peptide alone, E.G7 tumors, OT-1 transfer; for LAG-3 expression on CD8+ TIL / PD-1 expression on CD8+ TIL / PD-L1 expression on tumor cells / number of CD8+ tumor-infiltrating lymphocytes: tumors at necropsy; for anti-tumor efficacy of TLR ligand adjuvant alone: with non-specific peptide, no antigen-specific T-cell activation. How it is done: OT-1 T cells were then adoptively transferred and the following day were immunized with SIINFEKL (SEQ ID NO:1, OVA) or FT peptide (SEQ ID NO:2) alone or with TLR1/2 or TLR7 agonist. Other groups were immunized with 100 μg anti-PD-1 antibody delivered the following day. […] This anti-tumor effect was not observed with TLR agonist treatment alone (FIG. 22). […] This was associated with a reduced PD-1 (but not LAG-3) expression on CD8+ TIL (FIG. 17C).
Ovalbumin tumor treatment studies: 10^6 ovalbumin-expressing E.G7 PD-L 1^high cells were injected subcutaneously into 6- to 10-week old female B6 mice. Ten to fifteen days post injection, when tumors were palpable and similarly sized (˜0.2 cm^3), 2×10^6 naïve OT-1 CD8+ T cells were adoptively transferred to each mouse as described above. The following day mice were immunized subcutaneously with 100 μg of an individual peptide (SIINFEKL (SEQ ID NO:1) or variant, LifeTein) in PBS, with or without TLR agonists as described above. In the group receiving PD-1 blocking antibody, 100 μg of antibody (clone G4 (52)) was injected intraperitoneally on the day following vaccination. Tumor volume was measured over time using calipers and calculated in cubic centimeters according to the following formula: (π/6)*(long axis)*(short axis)^2. Tumors obtained at necropsy were digested in media containing 1 mg/mL collagenase and 20 μg/mL DNAse I (Sigma, St. Louis, MO) for 1-2 hours at 37° C. and passed through a 100-μm screen to obtain a single-cell suspension. Tumor cells and tumor-infiltrating lymphocytes (TILs) were stained and analyzed by flow cytometry using the following panel: CD3-FITC (BD 555274), CD4-BUV395 (BD 563790), CD8-BUV805 (BD 564920), LAG-3-BV711 (BD 563179), PD1-PECF594 (BD 562523), PDL1-PECy7 (BD 558017), 41BB-PerCPeF710) (eBioscience 46-1371-82), CD45-BV510 (BD 563891) and Live/Dead Ghost dye 780 (Tonbo, San Diego, CA 13-0865-T100) or corresponding fluorescently labeled IgG controls.

In a further data set the test system is CD8+ OT-1 T cells. Conditions: for Eomesodermin (EOMES gene) expression / expression of genes associated with T-cell regulation (including PD-1 and IL-10): 24 to 72 hours, versus peptide alone.

Procedure for CD8+ OT-1 T cells: CD8+ OT-1 T cells were then purified and evaluated for gene expression changes by RNA sequencing (RNA-seq).
RNA preparation and sequencing: Cells were stimulated in vitro as above, and at the times indicated T cells were isolated via immunomagnetic negative selection (StemCell, Vancouver, Canada 19853), RNA was collected as per the manufacturers instruction (Direct-zol RNA MiniPrep Plus w/TRI Reagent, Zymo Research), treated with DNAse (TURBO DNA-free Kit, Invitrogen), and stored at −80° C. until analysis at the UW-Madison Biotechnology Center. Total RNA was verified for purity and integrity via a NanoDrop2000 Spectrophotometer and Agilent 2100 BioAnalyzer, respectively. Samples that met the Illumina sample input guidelines were prepared using the Illumina® TruSeq® Stranded mRNA Sample Preparation kits (Illumina Inc., San Diego, California, USA). For each library preparation, mRNA was purified from 1000 ng total RNA using poly-T oligo-attached magnetic beads. Subsequently, each poly-A enriched sample was fragmented using divalent cations under elevated temperature. The fragmented RNA was synthesized into double-stranded cDNA using SuperScript II Reverse Transcriptase (Invitrogen, Carlsbad, California, USA) and random primers for first strand cDNA synthesis followed by second strand synthesis using DNA Polymerase I and RNAse H for removal of mRNA. Double-stranded cDNA was purified by paramagnetic beads (Agencourt AMPure XP beads, Beckman Coulter). The cDNA products were incubated with Klenow DNA Polymerase and DNA fragments, ligated to Illumina adapters, and purified by paramagnetic beads. Adapter ligated DNA was amplified in a Linker Mediated PCR reaction (LM-PCR) for 11 cycles using Phusion™ DNA Polymerase and Illumina's PE genomic DNA primer set and then purified by paramagnetic beads. Quality and quantity of the finished libraries were assessed using an Agilent DNA1000 chip (Agilent Technologies. Inc., Santa Clara, CA, USA) and Qubit® dsDNA HS Assay Kit (Invitrogen, Carlsbad, California, USA), respectively. Libraries were standardized to 2 μM. Cluster generation was performed using standard Cluster Kit (v3) and the Illumina Cluster Station. Single 100 bp sequencing was performed, using standard SBS chemistry (v4) on an Illumina HiSeq2500 sequencer. Images were analyzed using the standard Illumina Pipeline, version 1.8.2.
RNA sequencing data analysis: Illumina sequencing reads were adapter and quality trimmed using the Skewer trimming program. Quality reads were subsequently aligned to the annotated reference genome using the STAR aligner (43). Quantification of expression for each gene was calculated by RSEM (44), the expected read counts from RSEM were filtered for low/empty values and used for differential gene expression analysis using DESeq2 (45). All remaining genes from the pairwise comparisons were analyzed using Gene Set Enrichment Analysis (GSEA) (46, 47) to identify pathways (based on GO terms (c5.all.v6) from the Molecular Signatures Database (MSigDB (48)) as well as custom gene sets involved in TLR1/2 versus TLR7 ligand activation. GSEA was performed by calculating a ranked vector as log2 fold-change. Analysis was performed using R 3.3.1 (49) and Bioconductor 2.32.0 (50). Venn diagrams were generated using the VennDiagram package.

Take `CCNCc1nc2c(N)nc3ccccc3c2n1CC(C)(C)O` [Gardiquimod]: in data set [1], the “anti-tumor efficacy / tumor growth suppression in combination with DNA vaccine” value is listed as “significantly increased; also recorded: improved the tumor growth suppression” and the “effect on tumor growth of TLR agonist alone (with vector DNA)” value is listed as “modest effects”. Moreover, in data set [2], the “anti-tumor effect of peptide immunization with TLR agonist” value is reported as “greater anti-tumor effect”, the “LAG-3 expression on CD8+ TIL” value is “not”, the “PD-1 expression on CD8+ TIL” value is “reduced” and the “PD-L1 expression on tumor cells” value is “reduced”. In addition, in data set [2], the “number of CD8+ tumor-infiltrating lymphocytes” value is recorded as “greater number” and the “anti-tumor efficacy of TLR ligand adjuvant alone” value is on record as “do not have significant anti-tumor efficacy”. Moreover, in the data set on CD8+ OT-1 T cells, the “expression of genes associated with Th1-biased cytotoxic effector function (IFNγ, TNFα, granzymes A-C, perforin, T-Bet)” value is “induced”; the “Eomesodermin (EOMES gene) expression” value was “reduced”; the “expression of genes associated with T-cell regulation (including PD-1 and IL-10)” value is “reduced”.

Pam3CSK4: in data set [1], the “anti-tumor efficacy / tumor growth suppression in combination with DNA vaccine” value is given as “significantly increased; also recorded: improved the tumor growth suppression” and the “effect on tumor growth of TLR agonist alone (with vector DNA)” value is on record as “modest effects”. In data set [2], the “anti-tumor effect of peptide immunization with TLR agonist” value is on record as “greater anti-tumor effect”, the “LAG-3 expression on CD8+ TIL” value is listed as “not”, the “PD-1 expression on CD8+ TIL” value is “reduced” and the “PD-L1 expression on tumor cells” value was “reduced”. Moreover, in data set [2], the “number of CD8+ tumor-infiltrating lymphocytes” value is “greater number” and the “anti-tumor efficacy of TLR ligand adjuvant alone” value is “do not have significant anti-tumor efficacy”. In addition, in the data set with CD8+ OT-1 T cells, the “expression of genes associated with Th1-biased cytotoxic effector function (IFNγ, TNFα, granzymes A-C, perforin, T-Bet)” value is “induced”; the “Eomesodermin (EOMES gene) expression” value was “reduced”; the “expression of genes associated with T-cell regulation (including PD-1 and IL-10)” value is “reduced”.
